Here are results for eight compounds from ChEMBL document CHEMBL1201862, “PubChem BioAssay data set” (2004).

Molecules are shown by their SMILES.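 Method: 48-hour compound exposure of cells in 96-well plates, five concentrations, linear interpolation of endpoints. GI50 marks 50% less growth.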 Calls of active or inactive are those of the source. Rule as the data show it: active = GI50 up to about 1.1 µM and inactive = higher.

Test systems include UACC-257; MDA-MB-231; HCT-15; MDA-N; PC-3; HOP-92; NCI-H226; MOLT-4; Hs-578T; TK-10; KM12; COLO 205; LOX IMVI; UO-31; NCI-H522; SF-295; EKVX; OVCAR-4; SK-MEL-2.
Common to all, as to test: inhibition of tumour cell growth, NCI panel, 48 h

On to `O/N=N/c1cnccn1`, for which the GI50 with UACC-257 is > 1250 µM (inactive); with MDA-MB-231 it was > 1250 µM (inactive); with HCT-15, more than 1080 µM; in the experiment with MDA-N, > 1250 µM (inactive); in the experiment with PC-3, > 1250 µM (inactive); in the experiment on HOP-92, > 1080 µM (inactive). The GI50 with NCI-H226 is 1250 µM (inactive); with MOLT-4, 196 µM (inactive); in the experiment with Hs-578T it was > 1210 µM (inactive); in the experiment with TK-10, > 1250 µM (inactive); with KM12, > 1250 µM (inactive); with COLO 205 it was > 1220 µM (inactive). The GI50 is 1190 µM (inactive) with LOX IMVI; > 1250 µM (inactive) in the experiment on UO-31; 1030 µM (inactive) in the experiment on NCI-H522; > 1250 µM (inactive) in the experiment on SF-295; > 1250 µM (inactive) with EKVX; > 438 µM (inactive) in the experiment on OVCAR-4. Further, the GI50 in the experiment on SK-MEL-2 was > 1200 µM (inactive).
Consider `COc1cc(CNC(=O)CCCCCCCCCCSC#N)ccc1O`, for which the GI50 is 21 µM (inactive) in the experiment with UACC-257; 25.7 µM (inactive) in the experiment on MDA-MB-231; 6.93 µM in the experiment on HCT-15; 5.87 µM (inactive) in the experiment on MDA-N; 6.82 µM (inactive) in the experiment on PC-3; 17.1 µM (inactive) in the experiment with HOP-92. For the same compound, the GI50 is 18.1 µM (inactive) in the experiment with NCI-H226; 3.94 µM (inactive) in the experiment with MOLT-4; 14.2 µM (inactive) in the experiment with Hs-578T; 20.5 µM (inactive) in the experiment on TK-10; 5.83 µM (inactive) in the experiment on KM12; 30.3 µM (inactive) in the experiment with COLO 205. Moreover, the GI50 is 12 µM (inactive) in the experiment with LOX IMVI; 3.52 µM (inactive) with UO-31; 12.3 µM (inactive) in the experiment with NCI-H522; 19.1 µM (inactive) in the experiment on SF-295; 21.4 µM (inactive) in the experiment with EKVX; 25 µM (inactive) in the experiment on OVCAR-4. For the same compound, the GI50 in the experiment with SK-MEL-2 was 14.1 µM (inactive).
On to `COc1c2ccsc2c(OC)c2ccsc12`, for which the GI50 in the experiment with UACC-257 is > 100 µM (inactive); with MDA-MB-231, > 100 µM (inactive); in the experiment on HCT-15, more than 100 µM; with MDA-N, > 100 µM (inactive); in the experiment with PC-3, > 100 µM (inactive); in the experiment with HOP-92 it was 39.4 µM (inactive). Also, the GI50 is > 100 µM (inactive) with NCI-H226; > 100 µM (inactive) in the experiment with MOLT-4; 71.4 µM (inactive) in the experiment on Hs-578T; > 100 µM (inactive) in the experiment on TK-10; > 100 µM (inactive) with KM12; > 100 µM (inactive) in the experiment with COLO 205. Also, the GI50 with LOX IMVI was > 100 µM (inactive); in the experiment with UO-31, > 100 µM (inactive); in the experiment with NCI-H522 it was > 100 µM (inactive); with SF-295, 61.8 µM (inactive); with EKVX it was > 100 µM (inactive); with OVCAR-4, > 100 µM (inactive). Besides, the GI50 in the experiment on SK-MEL-2 is > 100 µM (inactive).
Take `Cc1cc2[nH]c(Cl)c(/C=C3\C(=O)Nc4ccccc43)c2cc1O`: the GI50 is 11.2 µM (inactive) in the experiment with UACC-257; 3.09 µM (inactive) in the experiment on MDA-MB-231; 1.66 µM with HCT-15; 0.379 µM (active) in the experiment with MDA-N; 2.2 µM (inactive) in the experiment on PC-3; 8.93 µM (inactive) with HOP-92. Besides, the GI50 was 0.542 µM (active) in the experiment with NCI-H226; 1.46 µM (inactive) with MOLT-4; 4.18 µM (inactive) in the experiment on Hs-578T; 9.71 µM (inactive) in the experiment on TK-10; 2.92 µM (inactive) in the experiment with KM12; 13.8 µM (inactive) with COLO 205. Also, the GI50 with LOX IMVI was 3.16 µM (inactive); with UO-31, 4.45 µM (inactive); with NCI-H522, 1.5 µM (inactive); in the experiment with SF-295 it was 2.79 µM (inactive); in the experiment on EKVX, 4.7 µM (inactive); in the experiment with OVCAR-4, 7.52 µM (inactive). In the experiment with SK-MEL-2, the GI50 was 2.1 µM (inactive).
Take `CCC(CC)(CO)CNc1cc(Cl)nc(N)n1`: the GI50 with UACC-257 is > 100 µM (inactive); in the experiment on MDA-MB-231, > 100 µM (inactive); with HCT-15, more than 100 µM; in the experiment with MDA-N, 89.5 µM (inactive); with PC-3 it was > 100 µM (inactive); in the experiment on HOP-92 it was 11.3 µM (inactive). Further, the GI50 was 77.1 µM (inactive) in the experiment with NCI-H226; > 100 µM (inactive) in the experiment on MOLT-4; > 100 µM (inactive) in the experiment with Hs-578T; > 100 µM (inactive) with TK-10; > 100 µM (inactive) in the experiment on KM12; > 100 µM (inactive) in the experiment on COLO 205. Moreover, the GI50 in the experiment on LOX IMVI was > 100 µM (inactive); in the experiment with UO-31, > 100 µM (inactive); with NCI-H522 it was > 100 µM (inactive); in the experiment with SF-295, > 100 µM (inactive); in the experiment on EKVX it was 79.3 µM (inactive); in the experiment on OVCAR-4, 87.9 µM (inactive). For the same compound, the GI50 with SK-MEL-2 was > 100 µM (inactive).
`C=C1CCC2CC1[C@@H](C(=O)c1c[nH]c3ccccc13)NC2(C)C` (some centres not stated): the GI50 in the experiment with UACC-257 is > 37.5 µM (inactive); in the experiment with MDA-MB-231 it was > 37.5 µM (inactive); in the experiment with HCT-15, more than 37.5 µM; in the experiment on MDA-N, > 37.5 µM (inactive); in the experiment on PC-3 it was 19.5 µM (inactive); in the experiment with HOP-92 it was 13.2 µM (inactive). The GI50 in the experiment with NCI-H226 was > 37.5 µM (inactive); in the experiment on MOLT-4, > 37.5 µM (inactive); with Hs-578T, > 37.5 µM (inactive); in the experiment with TK-10, > 37.5 µM (inactive); in the experiment on KM12, > 37.5 µM (inactive); in the experiment on COLO 205, 35 µM (inactive). Moreover, the GI50 was > 37.5 µM (inactive) in the experiment on LOX IMVI; 29.5 µM (inactive) in the experiment with UO-31; > 37.5 µM (inactive) with NCI-H522; > 37.5 µM (inactive) in the experiment on SF-295; > 37.5 µM (inactive) in the experiment with EKVX; > 37.5 µM (inactive) in the experiment with OVCAR-4. The GI50 in the experiment with SK-MEL-2 was 27.1 µM (inactive).
As for `O=Cc1c2n(c3ccccc13)N[C@@](Cc1ccc(O)cc1)(C(=O)O)C2`, the GI50 was 31 µM (inactive) in the experiment with UACC-257; > 100 µM (inactive) in the experiment with MDA-MB-231; 47.3 µM in the experiment with HCT-15; > 100 µM (inactive) in the experiment on MDA-N; 81.7 µM (inactive) in the experiment with PC-3; > 100 µM (inactive) in the experiment on HOP-92. Further, the GI50 with NCI-H226 was > 100 µM (inactive); with MOLT-4 it was 60.3 µM (inactive); with Hs-578T, > 100 µM (inactive); in the experiment with TK-10, > 100 µM (inactive); in the experiment on KM12 it was > 100 µM (inactive); in the experiment on COLO 205, > 100 µM (inactive). The GI50 in the experiment on LOX IMVI is 55.2 µM (inactive); in the experiment on UO-31, > 100 µM (inactive); in the experiment with NCI-H522 it was 25.5 µM (inactive); with SF-295 it was 63.2 µM (inactive); in the experiment on EKVX, > 100 µM (inactive); in the experiment with OVCAR-4 it was 68.7 µM (inactive). Also, the GI50 with SK-MEL-2 is > 100 µM (inactive).
On to `C/C=C/COc1cc(NC(=S)c2ccoc2C)ccc1OC`, for which the GI50 was > 100 µM (inactive) in the experiment on UACC-257; 29.5 µM (inactive) with MDA-MB-231; more than 100 µM in the experiment with HCT-15; > 100 µM (inactive) in the experiment with MDA-N; > 100 µM (inactive) with PC-3; 16.7 µM (inactive) in the experiment with HOP-92. Besides, the GI50 in the experiment with NCI-H226 is > 100 µM (inactive); in the experiment with MOLT-4 it was > 100 µM (inactive); with Hs-578T, 34 µM (inactive); in the experiment with TK-10, 97.1 µM (inactive); with KM12, > 100 µM (inactive); in the experiment on COLO 205 it was > 100 µM (inactive). Further, the GI50 was > 100 µM (inactive) in the experiment on LOX IMVI; 61.4 µM (inactive) with UO-31; 66.1 µM (inactive) with NCI-H522; 77.8 µM (inactive) with SF-295; 49.8 µM (inactive) with EKVX; 23 µM (inactive) with OVCAR-4. Moreover, the GI50 in the experiment on SK-MEL-2 is > 100 µM (inactive).
